From patent US8568699B2, “Soft anticholinergic zwitterions” (priority 2005, dated 2013)
Structures can show the parent of a compound that is named as a salt. Where two headings read alike, the source gives them in different places.

Tests used:
[1] = tested on: electrically stimulated guinea pig tracheal strips; type: cell-based
[2] = tested on: muscarinic M3 cholinoceptors (guinea pig tracheal rings); type: cell-based
[3] = biological target: cloned human muscarinic receptors (M1-M4 subtypes); assay: Receptor binding, values stated across subtypes M1-M4
[4] = biological target: T1, cloned human muscarinic receptor subtype M2 (Homo sapiens, UniProt P08172); assay: Receptor binding, N-[3H]-methyl-scopolamine, M2
T1 sequence (P08172 1-466): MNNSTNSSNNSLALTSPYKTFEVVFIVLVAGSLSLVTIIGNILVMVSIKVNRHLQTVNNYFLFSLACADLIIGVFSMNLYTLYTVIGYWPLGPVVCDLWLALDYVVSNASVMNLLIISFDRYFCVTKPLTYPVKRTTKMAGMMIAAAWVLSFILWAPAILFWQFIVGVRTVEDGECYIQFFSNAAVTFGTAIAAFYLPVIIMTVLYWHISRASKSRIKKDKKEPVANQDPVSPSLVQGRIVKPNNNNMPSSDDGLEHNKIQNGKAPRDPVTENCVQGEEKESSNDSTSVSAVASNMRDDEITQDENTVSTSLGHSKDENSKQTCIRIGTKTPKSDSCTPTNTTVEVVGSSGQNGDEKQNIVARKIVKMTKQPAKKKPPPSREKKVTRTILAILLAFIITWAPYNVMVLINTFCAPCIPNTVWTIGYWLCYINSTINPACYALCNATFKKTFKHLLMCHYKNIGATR

[5] = biological target: T2, cloned human muscarinic receptor subtype M4 (Homo sapiens, UniProt P08173); assay: Receptor binding, N-[3H]-methyl-scopolamine, M4; conditions: numbers in parentheses
T2 construct: purchased Applied Cell Science Inc. (Rockville, Md.)
T2 sequence (P08173 1-479): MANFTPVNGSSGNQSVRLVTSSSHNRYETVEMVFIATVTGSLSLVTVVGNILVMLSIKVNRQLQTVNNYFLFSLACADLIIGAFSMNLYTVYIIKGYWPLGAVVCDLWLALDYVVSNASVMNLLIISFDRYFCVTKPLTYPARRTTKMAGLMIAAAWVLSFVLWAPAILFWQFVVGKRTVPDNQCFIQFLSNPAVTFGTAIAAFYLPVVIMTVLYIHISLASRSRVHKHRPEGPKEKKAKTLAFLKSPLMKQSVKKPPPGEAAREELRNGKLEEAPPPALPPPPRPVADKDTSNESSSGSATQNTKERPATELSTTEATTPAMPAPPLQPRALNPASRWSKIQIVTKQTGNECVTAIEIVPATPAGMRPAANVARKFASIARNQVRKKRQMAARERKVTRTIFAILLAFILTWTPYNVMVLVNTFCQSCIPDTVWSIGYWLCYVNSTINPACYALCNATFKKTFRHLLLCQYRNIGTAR

[6] = biological target: T3, cloned human muscarinic receptor subtype M1 (Homo sapiens, UniProt P11229); assay: Receptor binding, N-[3H]-methyl-scopolamine, M1; conditions: numbers in parentheses
T3 sequence (P11229 1-460): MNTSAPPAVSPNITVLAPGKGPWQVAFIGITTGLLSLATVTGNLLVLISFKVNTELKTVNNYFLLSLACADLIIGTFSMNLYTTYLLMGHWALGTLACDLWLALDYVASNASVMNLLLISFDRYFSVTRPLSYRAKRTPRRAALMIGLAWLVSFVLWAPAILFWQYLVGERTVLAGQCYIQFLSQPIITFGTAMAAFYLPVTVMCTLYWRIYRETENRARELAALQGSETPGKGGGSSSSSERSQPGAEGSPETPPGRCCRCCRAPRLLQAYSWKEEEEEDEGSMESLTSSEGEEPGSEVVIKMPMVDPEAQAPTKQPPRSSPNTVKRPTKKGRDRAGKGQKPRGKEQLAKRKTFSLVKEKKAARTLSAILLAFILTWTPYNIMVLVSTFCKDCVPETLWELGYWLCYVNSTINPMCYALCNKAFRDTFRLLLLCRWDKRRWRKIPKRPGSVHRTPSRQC

[7] = biological target: T4, cloned human muscarinic receptor subtype M3 (Homo sapiens, UniProt P20309); assay: Receptor binding, N-[3H]-methyl-scopolamine, M3; conditions: for M3 Hill slope: numbers in parentheses
T4 construct: purchased Applied Cell Science Inc. (Rockville, Md.)

[8] = electrically stimulated guinea pig tracheal strips
[9] = time from washout to 20% recovery of cholinergic responses
[10] = Table 6, numbers in parentheses

T4 sequence (P20309 whole entry): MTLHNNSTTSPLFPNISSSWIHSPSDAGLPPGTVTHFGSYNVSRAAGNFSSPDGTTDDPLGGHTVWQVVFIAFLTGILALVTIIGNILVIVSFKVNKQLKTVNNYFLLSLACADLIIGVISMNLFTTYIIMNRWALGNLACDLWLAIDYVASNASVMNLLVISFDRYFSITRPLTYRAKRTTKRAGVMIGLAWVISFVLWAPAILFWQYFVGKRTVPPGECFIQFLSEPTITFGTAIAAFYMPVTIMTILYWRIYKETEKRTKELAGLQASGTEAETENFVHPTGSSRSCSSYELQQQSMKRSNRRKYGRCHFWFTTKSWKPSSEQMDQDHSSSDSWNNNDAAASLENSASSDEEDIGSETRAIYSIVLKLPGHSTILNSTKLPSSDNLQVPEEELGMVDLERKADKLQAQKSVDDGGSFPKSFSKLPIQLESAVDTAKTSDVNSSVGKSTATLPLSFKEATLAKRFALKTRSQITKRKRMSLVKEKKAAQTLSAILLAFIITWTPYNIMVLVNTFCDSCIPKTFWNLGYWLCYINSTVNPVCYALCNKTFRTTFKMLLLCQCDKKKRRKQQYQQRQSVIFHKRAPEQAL

`CCOC(=O)C[N+]1(C)[C@@H]2C[C@@H](OC(=O)C(O)(c3cccs3)c3cccs3)C[C@H]1[C@@H]1O[C@@H]12` (stereo partly drawn) [Compound (w), 6β,7β-epoxy-3β-hydroxy-8-ethoxycarbonylmethyl-8-methyl-1αH,5αH-tropanium bromide, di-2-thienylglycolate] was tested, and the t1/5 onset [1, 8] was 0.6 min, the t1/5 offset [1, 9] was 60 min and the pA2 ([2]; antagonism against carbachol, isolated guinea pig tracheal rings, four animals) was 8.82.

Molecule `C[N+]1(C)[C@@H]2C[C@@H](OC(=O)C(O)(c3cccs3)c3cccs3)C[C@H]1[C@@H]1O[C@@H]12` [Tiotropium] has a t1/5 offset [1] of over 360 min and a t1/5 onset [1] of 8.0 min.

Work on `C[N+]1(CC(=O)[O-])[C@@H]2C[C@@H](OC(=O)C(O)(c3cccs3)c3cccs3)C[C@H]1[C@@H]1O[C@@H]12` (stereo partly drawn) [Compound (aa), 6β,7β-epoxy-3β-hydroxy-8-carboxymethyl-8-methyl-1αH,5αH-tropanium, di-2-thienylglycolate inner salt] yielded a t1/5 onset [1, 8] of 0.9 min and a t1/5 offset [1, 9] of 27 min.

For `C[N+]1(C)CCC(OC(=O)C(O)(c2ccccc2)C2CCCC2)C1` (mixture of isomers) [glycopyrrolate, glycopyrronium bromide], the “pKi (range over M1-M4)” value [3] was 8.7-9.9, the “M2 Hill slope” value ([4]; Table 1, numbers in parentheses) was “(0.99 ± 0.11)” and the “M2 Hill slope” value [4, 10] was “(0.99 ± 0.11)”. The “M4 Hill slope” value ([5]; Table 1) was “(1.02 ± 0.01)”, the “M4 Hill slope” value ([5]; Table 6) was “(1.02 ± 0.01)” and the “M1 Hill slope” value ([6]; Table 1) was “(1.37 ± 0.20)”. The “M1 Hill slope” value ([6]; Table 6) was “(1.37 ± 0.20)”, the “M3 Hill slope” value ([7]; Table 1) was “(1.14 ± 0.25)” and the “M3 Hill slope” value ([7]; Table 6) was “(1.14 ± 0.25)”.

With `CN1[C@@H]2CC[C@H]1C[C@@H](OC(=O)C(CO)c1ccccc1)C2` (stereo partly shown) [Atropine] the t1/5 offset [1] was 10 min and the t1/5 onset [1] was 2.5 min.

`CC(C)[N+]1(C)[C@@H]2CC[C@H]1CC(OC(=O)C(CO)c1ccccc1)C2.[Br-]` (stereo partly shown) [Ipratropium Br, ipratropium bromide] gave a t1/5 onset [1] of 3.0 min and a pA2 [2] of 9.18.

For `CCOC(=O)C[N+]1(C)CC[C@H](OC(=O)[C@](O)(c2ccccc2)C2CCCC2)C1` (mixture of isomers) [Compound (j), (2R,3′S) 3(2-Cyclopentyl-2-phenyl-2-hydroxyacetoxy)-1-(ethoxycarbonylmethyl)-1-methylpyrrolidinium bromide], the “pKi (range over M1-M4)” value [3] was 8.2-8.7, the “M2 Hill slope” value [4, 10] was “(1.27 ± 0.11)” and the “M4 Hill slope” value ([5]; Table 6) was “(1.15 ± 0.03)”. The “M1 Hill slope” value ([6]; Table 6) was “(1.21 ± 0.33)”, the “M3/M2 muscarinic-receptor subtype-selectivity” value ([7]; M3 affinity relative to M2 affinity) was 2.8±0.8 times and the “Selectivity M3/M2 (M3/M2 affinity ratio)” value ([7]; Table 6) was 2.8 ± 0.8 times. For the same molecule, the “M3 Hill slope” value ([7]; Table 6) was “(1.33 ± 0.16)”.

`C[N+]1(C)[C@@H]2C[C@@H](OC(=O)[C@H](CO)c3ccccc3)C[C@H]1[C@@H]1O[C@@H]12` [scopolamine methyl bromide, scopolamine methylbromide] was tested, and the “M2 Hill slope” value [4] was “(1.02 ± 0.02)”.
